Assay results taken from ChEMBL document CHEMBL1127130, “Peptidomimetic inhibitors of renin incorporating topographically modified isosteres spanning the P1( P3)-P1' sites” (Bioorg Med Chem Lett, 1993).

Target: T1, Renin (Homo sapiens) (UniProt P00797)
T1 sequence (whole entry): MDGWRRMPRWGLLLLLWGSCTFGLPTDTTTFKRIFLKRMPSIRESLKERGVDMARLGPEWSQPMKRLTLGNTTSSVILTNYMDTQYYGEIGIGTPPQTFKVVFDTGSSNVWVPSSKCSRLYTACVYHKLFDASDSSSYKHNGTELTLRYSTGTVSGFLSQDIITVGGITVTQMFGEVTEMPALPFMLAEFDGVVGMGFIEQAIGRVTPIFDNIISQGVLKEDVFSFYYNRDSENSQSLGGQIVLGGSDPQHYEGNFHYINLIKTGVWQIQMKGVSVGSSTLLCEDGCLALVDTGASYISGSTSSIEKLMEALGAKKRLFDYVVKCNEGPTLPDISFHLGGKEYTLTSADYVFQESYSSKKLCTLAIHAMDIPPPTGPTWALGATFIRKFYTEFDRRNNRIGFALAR
Test: The compound was evaluated for inhibitory activity against monkey plasma renin at concentration of […]
Format: cell-free
Conditions: Cercopithecidae, target entry is the homologue from another species

C=CC[C@H](NC(=O)CNS(=O)(=O)N1CCOCC1)C(=O)N[C@@H](CC1CCC(CCC(C)C)CC1)[C@@H](O)[C@@H](O)CC(C)C (stereo partly specified)
inhibition: 29%
